The target of assay [1] is T1, ER α-glucosidase II (GANAB) (Homo sapiens, UniProt Q14697).
T1 construct: GANAB (from Pompe Disease Fibroblast Lysates); endogenous in cells; host or cells: human fibroblasts (lysate)
T1 sequence (Q14697 29-944): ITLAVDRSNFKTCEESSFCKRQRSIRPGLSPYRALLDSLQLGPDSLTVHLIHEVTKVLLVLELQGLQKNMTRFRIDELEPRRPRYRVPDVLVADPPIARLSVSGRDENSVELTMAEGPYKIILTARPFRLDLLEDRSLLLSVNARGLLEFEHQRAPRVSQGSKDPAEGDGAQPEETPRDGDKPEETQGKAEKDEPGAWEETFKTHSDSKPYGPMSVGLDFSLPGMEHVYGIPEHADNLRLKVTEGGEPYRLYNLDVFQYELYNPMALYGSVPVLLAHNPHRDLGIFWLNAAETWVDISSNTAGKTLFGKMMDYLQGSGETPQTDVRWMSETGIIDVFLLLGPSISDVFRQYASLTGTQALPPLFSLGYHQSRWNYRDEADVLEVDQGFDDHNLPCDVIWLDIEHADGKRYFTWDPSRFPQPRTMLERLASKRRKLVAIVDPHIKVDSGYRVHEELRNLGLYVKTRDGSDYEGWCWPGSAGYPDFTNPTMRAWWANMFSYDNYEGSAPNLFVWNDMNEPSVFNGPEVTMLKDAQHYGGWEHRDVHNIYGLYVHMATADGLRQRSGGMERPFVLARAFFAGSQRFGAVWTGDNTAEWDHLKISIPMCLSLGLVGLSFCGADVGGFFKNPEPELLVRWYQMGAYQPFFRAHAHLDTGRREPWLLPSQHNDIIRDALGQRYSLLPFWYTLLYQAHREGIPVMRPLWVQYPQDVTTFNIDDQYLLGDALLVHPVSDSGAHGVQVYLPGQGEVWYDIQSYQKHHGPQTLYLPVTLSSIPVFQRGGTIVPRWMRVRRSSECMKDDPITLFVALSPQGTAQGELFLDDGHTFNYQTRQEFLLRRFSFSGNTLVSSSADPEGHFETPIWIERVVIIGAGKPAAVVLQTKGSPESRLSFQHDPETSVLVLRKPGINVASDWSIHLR
T1 sequence (P14314 15-528 partner): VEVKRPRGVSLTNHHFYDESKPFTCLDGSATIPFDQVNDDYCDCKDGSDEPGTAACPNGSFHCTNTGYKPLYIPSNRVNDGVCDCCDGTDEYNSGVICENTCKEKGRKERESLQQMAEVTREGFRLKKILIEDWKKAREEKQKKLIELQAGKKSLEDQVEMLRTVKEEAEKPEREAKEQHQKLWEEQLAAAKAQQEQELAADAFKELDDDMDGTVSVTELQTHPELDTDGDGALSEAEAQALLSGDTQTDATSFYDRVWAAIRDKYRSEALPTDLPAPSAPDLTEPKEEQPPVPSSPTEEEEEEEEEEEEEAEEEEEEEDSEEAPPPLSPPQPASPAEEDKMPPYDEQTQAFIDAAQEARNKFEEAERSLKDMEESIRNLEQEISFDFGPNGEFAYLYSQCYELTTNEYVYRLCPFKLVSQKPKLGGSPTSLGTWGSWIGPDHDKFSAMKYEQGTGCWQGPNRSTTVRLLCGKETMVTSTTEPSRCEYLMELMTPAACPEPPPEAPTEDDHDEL
Briefly: in vitro apparent IC50, GANAB in fibroblast lysates, 4-MU-α-D-glucopyranoside. The class given is biochemical. Conditions: for IC50: apparent IC50, Pompe disease fibroblast lysates, pH 7.0, mean ± SD.

Another assay addresses T2, β-glucosidase GBA2 (Homo sapiens, UniProt Q9HCG7).
T2 construct: expressed in transfected cells; host or cells: HEK293T
T2 sequence (Q9HCG7 1-927): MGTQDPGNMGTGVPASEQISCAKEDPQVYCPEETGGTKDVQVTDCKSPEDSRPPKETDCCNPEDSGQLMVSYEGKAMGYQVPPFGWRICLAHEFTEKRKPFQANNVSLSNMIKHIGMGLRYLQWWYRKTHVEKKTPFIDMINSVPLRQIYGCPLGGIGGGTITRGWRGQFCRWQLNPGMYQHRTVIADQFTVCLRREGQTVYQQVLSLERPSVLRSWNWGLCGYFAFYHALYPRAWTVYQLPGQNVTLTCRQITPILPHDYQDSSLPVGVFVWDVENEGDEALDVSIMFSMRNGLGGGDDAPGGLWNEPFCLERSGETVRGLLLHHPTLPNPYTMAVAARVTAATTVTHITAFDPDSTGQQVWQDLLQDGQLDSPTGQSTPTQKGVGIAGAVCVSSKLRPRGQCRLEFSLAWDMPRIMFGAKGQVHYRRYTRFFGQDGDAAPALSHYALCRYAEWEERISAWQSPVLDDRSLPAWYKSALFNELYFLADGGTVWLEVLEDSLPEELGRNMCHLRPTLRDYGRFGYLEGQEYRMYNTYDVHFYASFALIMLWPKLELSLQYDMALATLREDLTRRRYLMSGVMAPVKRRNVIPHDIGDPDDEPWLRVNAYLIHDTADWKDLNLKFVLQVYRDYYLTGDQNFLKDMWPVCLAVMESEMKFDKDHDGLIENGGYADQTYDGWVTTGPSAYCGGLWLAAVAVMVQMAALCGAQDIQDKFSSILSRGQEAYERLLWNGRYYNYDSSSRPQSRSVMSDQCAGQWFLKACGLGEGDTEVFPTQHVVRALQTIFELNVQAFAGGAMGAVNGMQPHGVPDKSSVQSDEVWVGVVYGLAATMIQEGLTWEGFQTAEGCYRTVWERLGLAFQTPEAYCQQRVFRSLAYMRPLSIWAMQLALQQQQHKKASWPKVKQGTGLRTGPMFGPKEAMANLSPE
As to the kind of experiment: in vitro apparent IC50, GBA2-overexpressing HEK293T lysate. The class given is biochemical. Conditions: for IC50: apparent IC50, pH 5.8, mean ± SD.

The target in assay [2] is T3, glucosylceramide synthase (GCS) (Mus musculus, UniProt O88693).
T3 construct: endogenous in cells; host or cells: RAW 264.7
T3 sequence (O88693 1-394): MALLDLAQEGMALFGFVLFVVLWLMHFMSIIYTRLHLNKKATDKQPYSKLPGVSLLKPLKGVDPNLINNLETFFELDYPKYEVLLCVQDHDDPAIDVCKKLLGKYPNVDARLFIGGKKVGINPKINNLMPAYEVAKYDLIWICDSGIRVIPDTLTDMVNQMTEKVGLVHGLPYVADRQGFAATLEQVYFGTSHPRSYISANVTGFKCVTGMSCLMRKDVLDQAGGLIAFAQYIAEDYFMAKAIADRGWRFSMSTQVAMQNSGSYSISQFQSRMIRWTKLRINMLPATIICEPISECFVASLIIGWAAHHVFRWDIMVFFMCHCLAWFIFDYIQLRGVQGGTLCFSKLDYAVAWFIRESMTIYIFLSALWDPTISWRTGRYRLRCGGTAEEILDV
Briefly: in situ cell inhibition of GCS in RAW 264.7 cells, glucosylation of C6-NBD-ceramide. The class given is cell-based. Conditions: mean ± SD.

The target of assay [3] is T4, β-glucosidase GBA1 (Cerezyme) (Homo sapiens, UniProt P04062, R534H).
T4 construct: purchased
T4 sequence (P04062 40-536 R534H): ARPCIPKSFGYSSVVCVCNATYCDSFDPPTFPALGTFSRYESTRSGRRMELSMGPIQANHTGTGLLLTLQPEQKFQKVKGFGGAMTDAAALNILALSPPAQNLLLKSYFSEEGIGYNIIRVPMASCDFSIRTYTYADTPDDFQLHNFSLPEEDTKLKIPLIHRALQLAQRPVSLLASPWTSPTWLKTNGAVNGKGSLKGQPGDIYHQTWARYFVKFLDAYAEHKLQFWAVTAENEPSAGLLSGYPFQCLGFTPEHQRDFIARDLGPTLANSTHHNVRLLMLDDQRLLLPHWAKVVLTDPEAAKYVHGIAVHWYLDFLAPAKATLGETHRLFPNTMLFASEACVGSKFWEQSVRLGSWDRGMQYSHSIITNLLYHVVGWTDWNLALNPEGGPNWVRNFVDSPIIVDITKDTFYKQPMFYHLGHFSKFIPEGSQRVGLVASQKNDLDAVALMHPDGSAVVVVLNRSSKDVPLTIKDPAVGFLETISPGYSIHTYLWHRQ
Briefly: in vitro apparent IC50, GBA1 (Cerezyme), 4-MU-β-D-glucopyranoside. The assay is classed as biochemical. Particulars: pH 5.2, mean ± SD, read-out: in vitro GBA IC50.

The target of assay [4] is α-glucosidase GAA (Myozyme) (Homo sapiens, UniProt P10253). As to the kind of experiment: in vitro apparent IC50, GAA (Myozyme), 4-MU-α-D-glucopyranoside. The class given is biochemical. Also on record: purchased Sanofi Genzyme. Particulars: Myozyme 47 nM, pH 4.0, 30 min preincubation, mean ± SD.

Several values for one entry are separate records, joined by “and”; a condition that tells them apart may be missing. Identical values can stand only once.

In the case of `O=S1(=O)N[C@@H]2[C@H](O)[C@@H](O)[C@H](O)[C@@H](CO)[C@@H]2N1` [compound 8], the IC50 (as a rule, the point on the concentration scale where inhibition reaches its midpoint) in assay [1] is > 500 µM; on β-glucosidase GBA2 it was > 500 µM; in assay [2] it was > 50 µM; in assay [3], > 500 µM; in assay [4], > 500 µM.

For the molecule `CN1[C@@H]2[C@H](O)[C@@H](O)[C@H](O)[C@@H](CO)[C@@H]2OS1(=O)=O` [compound 5], in assay [1], the “activity toward GANAB, in words” value is “inactive”. Further, the IC50 was > 500 µM in assay [1], 393 ± 93.7 µM on β-glucosidase GBA2, > 500 µM in assay [3] and 485 ± 146 µM in assay [4].

As to `CN1[C@H]2[C@H](CO)[C@@H](O)[C@H](O)[C@@H](O)[C@H]2OS1(=O)=O` [compound 7], the IC50 in assay [1] was 132 ± 11.8 µM; at β-glucosidase GBA2, 652 ± 87.3 µM; in assay [2] it was > 50 µM; in assay [3], 93 µM and 93.4 µM; in assay [4], > 1000 µM.

For the molecule `O=S1(=O)O[C@@H]2[C@H](O)[C@@H](O)[C@H](O)[C@@H](CO)[C@@H]2O1` [compound 3, 1,6-epi-cyclophellitol cyclosulfate, reference compound], the IC50 in assay [1] was 0.026 µM; in assay [3], > 500 µM; in assay [4], 0.048 µM. In addition, the inhibition (commonly the relative decrease from the control value, in per cent) at 500 µM on β-glucosidase GBA2 (at 500 μM) is 62%.

Values taken from article PMC9389588, “1,6-epi-Cyclophellitol Cyclosulfamidate Is a Bona Fide Lysosomal α-Glucosidase Stabilizer for the Treatment of Pompe Disease” (Journal of the American Chemical Society, 2022).
